# Measurements taken from the supplement of paper PMC8253809.
# Assays:
# DIPGX7 [1] = H3.3 K27M diffuse intrinsic pontine glioma line; assay: area under dose-response curve of % growth inhibition (log2 RLU vs DMSO / staurosporine), 1e-11 to 1e-4 M (% x log10 M); higher = more growth inhibition
# How it was run: (§1)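 Patient-derived pHGG/DIPG cell lines and astrocytes were plated in 384-well plates coated with 1% Geltrex and treated in triplicate with a 10-point threefold dilution series whose mean top concentration was 35 μM, for 7 days (3 days for iAstro) at 37 °C and 5% CO2. CellTiter-Glo luminescence was log2-transformed and scaled on each plate to % activity between solvent and positive controls. Area under the curve came from the trapezoid rule applied to a fitted log-logistic curve, or to a smoothing spline where the sigmoid fit failed.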
# HGGX2 [2] = paediatric high-grade glioma line; assay: as above
# How it was run: as §1
# DIPGX9 [3] = diffuse intrinsic pontine glioma line; assay: as above
# How it was run: as §1
# DIPGX29 [4] = H3.3 K27M diffuse intrinsic pontine glioma line; assay: as above
# How it was run: as §1
# HGGX42 [5] = H3.3 G34R paediatric high-grade glioma line; assay: as above
# How it was run: as §1
# SUDIPGXVII [6] = diffuse intrinsic pontine glioma line; assay: as above
# How it was run: as §1
# HGGX39 [7] = paediatric high-grade glioma line; assay: as above
# How it was run: as §1
# HGGX6 [8] = H3.3 G34R paediatric high-grade glioma line; assay: as above
# How it was run: as §1
# DIPGX37 [9] = H3.3 K27M diffuse intrinsic pontine glioma line; assay: as above
# How it was run: as §1
# SUDIPGXIII [10] = diffuse intrinsic pontine glioma line; assay: as above
# How it was run: as §1
# SUDIPGXIX [11] = diffuse intrinsic pontine glioma line; assay: as above
# How it was run: as §1
# HABS [12] = astrocyte control; assay: as above
# How it was run: as §1
# SUDIPGIV [13] = diffuse intrinsic pontine glioma line; assay: as above
# How it was run: as §1
# SUDIPGXXI [14] = diffuse intrinsic pontine glioma line; assay: as above
# How it was run: as §1
# DIPGX7 [15] = assay: maximal growth inhibition (yFin) relative to DMSO / staurosporine; higher = more efficacious
# How it was run: (§2)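 Treatment used a pin tool and a 10-point threefold dilution series, mean top concentration 35 μM, run in triplicate on patient-derived pHGG/DIPG cell lines and astrocyte controls in 1% Geltrex-coated 384-well plates. Plates were kept at 37 °C, 5% CO2 for 7 days (iAstro: 3 days). Log2-transformed CellTiter-Glo luminescence was scaled per plate to % activity between negative (solvent) and positive control wells and pooled before fitting. EC50 and maximal response (yFin) came from the three- or four-parameter log-logistic fit chosen by lowest AICc.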
# HGGX2 [16] = assay: as above
# How it was run: as §2
# DIPGX9 [17] = assay: as above
# How it was run: as §2
# DIPGX29 [18] = assay: as above
# How it was run: as §2
# HGGX42 [19] = assay: as above
# How it was run: as §2
# SUDIPGXVII [20] = assay: as above
# How it was run: as §2
# HGGX39 [21] = assay: as above
# How it was run: as §2
# iAstro = astrocyte control; assay: as above
# How it was run: as §2
# HGGX6 [22] = assay: as above
# How it was run: as §2
# DIPGX37 [23] = assay: as above
# How it was run: as §2
# SUDIPGXIII [24] = assay: as above
# How it was run: as §2
# SUDIPGXIX [25] = assay: as above
# How it was run: as §2
# SUDIPGVI = diffuse intrinsic pontine glioma line; assay: as above
# How it was run: as §2
# HABS [26] = assay: as above
# How it was run: as §2
# SUDIPGIV [27] = assay: as above
# How it was run: as §2
# SUDIPGXXI [28] = assay: as above
# How it was run: as §2
Compound,area under dose-response curve (DIPGX7 [1]),area under dose-response curve (HGGX2 [2]),area under dose-response curve (DIPGX9 [3]),area under dose-response curve (DIPGX29 [4]),area under dose-response curve (HGGX42 [5]),area under dose-response curve (SUDIPGXVII [6]),area under dose-response curve (HGGX39 [7]),area under dose-response curve (HGGX6 [8]),area under dose-response curve (DIPGX37 [9]),area under dose-response curve (SUDIPGXIII [10]),area under dose-response curve (SUDIPGXIX [11]),area under dose-response curve (HABS [12]),area under dose-response curve (SUDIPGIV [13]),area under dose-response curve (SUDIPGXXI [14]),maximal growth inhibition (DIPGX7 [15]) [%],maximal growth inhibition (HGGX2 [16]) [%],maximal growth inhibition (DIPGX9 [17]) [%],maximal growth inhibition (DIPGX29 [18]) [%],maximal growth inhibition (HGGX42 [19]) [%],maximal growth inhibition (SUDIPGXVII [20]) [%],maximal growth inhibition (HGGX39 [21]) [%],maximal growth inhibition (iAstro) [%],maximal growth inhibition (HGGX6 [22]) [%],maximal growth inhibition (DIPGX37 [23]) [%],maximal growth inhibition (SUDIPGXIII [24]) [%],maximal growth inhibition (SUDIPGXIX [25]) [%],maximal growth inhibition (SUDIPGVI) [%],maximal growth inhibition (HABS [26]) [%],maximal growth inhibition (SUDIPGIV [27]) [%],maximal growth inhibition (SUDIPGXXI [28]) [%]
CC(=O)c1cc([N+](=O)[O-])c(Sc2ccc(F)cc2F)s1,94.3,78.5,92.8,104,84,55.7,19.5,67.9,88.6,74.4,91.8,26.4,91.3,87.4,117,106,109,115,108,74.3,24.6,89.1,104,112,104,118,94.1,37.7,104,113
O=C(c1ccccc1)c1ccc2nc(NC(=O)c3csc(C4CCN(c5ncnc6ccsc56)CC4)n3)[nH]c2c1,135,83.7,62.6,97.4,72.8,68.3,55.4,55.8,89.1,114,118,42.1,51.4,147,89.8,51.9,44.1,62.1,48.7,28.2,29.6,64.8,36,38.4,50.1,112,45.9,35.8,27.7,111
CCN1CCN(Cc2ccc(Nc3ncc(F)c(-c4cc(F)c5nc(C)n(C(C)C)c5c4)n3)nc2)CC1 [ABEMACICLIB],233,120,124,107,83.9,123,193,127,255,109,248,93.8,156,252,110,42.3,43.3,38.4,30.7,61.1,84.4,59,69.4,99.9,52.5,110,48.9,–,76.8,96.9
COCC1(CO)C(=O)C2CCN1CC2 (stereo unspecified) [APR-246],79.7,69.5,94.2,90.6,72,87.2,13,73.1,87.7,74.7,74.8,8.03,85.3,177,102,97.9,105,106,99.8,99,–,90.9,90.1,111,97.3,96.4,102,–,105,112
CN1[C@@H]2CC[C@H]1C[C@@H](OC(=O)c1cc(Cl)cc(Cl)c1)C2 [BEMESETRON],112,64,58.7,101,119,39.9,85.8,73.6,137,8.98,65.3,14.8,93.7,166,90.5,49.4,43.8,89.8,86.2,44.2,81.4,36.1,63.8,102,–,77.2,–,20.8,77.1,104
CC(C)C[C@H](NC(=O)[C@H](CCc1ccccc1)NC(=O)CN1CCOCC1)C(=O)N[C@@H](Cc1ccccc1)C(=O)N[C@@H](CC(C)C)C(=O)[C@@]1(C)CO1 [CARFILZOMIB],303,344,343,171,213,249,239,217,266,148,294,280,320,649,92,97.2,115,96.2,77,105,107,87.1,91.3,98.9,105,116,95.3,108,98.6,–
Cc1noc2c1-c1ccccc1C(c1ccc(Cl)cc1)=N[C@H]2CC(N)=O [CPI-0610],105,98.6,194,99.5,110,88.9,110,59.4,81.3,13.5,156,97.5,114,251,116,69.1,113,90.8,80.1,63.3,109,39,41.6,–,–,127,106,72.8,75.1,116
CCCc1cc(C)[nH]c(=O)c1CNC(=O)c1cc(-c2ccnc(N3CCN(C)CC3)c2)cc2c1cnn2C(C)C [GSK343],71.6,88.2,90.7,78.7,98.2,12.3,12.1,66.3,99.1,49.9,122,56.1,51.3,102,114,113,123,120,115,–,20.4,66.2,111,122,87.9,125,112,69,74.3,126
C=CCn1c(=O)c2cnc(Nc3ccc(N4CCN(C)CC4)cc3)nc2n1-c1cccc(C(C)(C)O)n1 [MK-1775],58.4,83,60,114,53.5,39.4,46.4,37.6,48.9,15,73.8,35.1,96,190,25,31,41.4,39.2,34.5,25.1,43.8,36.6,24.9,22.2,–,37.7,–,26.7,46.7,91.8
COc1ncc(-c2ccc3nccc(-c4ccnnc4)c3c2)cc1NS(=O)(=O)c1ccc(F)cc1F [OMIPALISIB],248,263,366,219,237,251,224,193,290,225,326,262,245,366,–,105,104,105,99.4,111,115,41.1,110,116,108,108,112,101,110,118
CCOc1cc(C(C)(C)C)ccc1C1=N[C@@](C)(c2ccc(Cl)cc2)[C@@](C)(c2ccc(Cl)cc2)N1C(=O)N1CCN(CCCS(C)(=O)=O)CC1 [RG7112],73.2,77.8,204,85.4,76,91.7,82.1,61.6,169,77.5,204,176,47.8,288,70.5,101,109,93.2,94.2,102,96.2,82.6,86.4,–,61.6,113,35.2,108,55.8,115
C=CCNC1=C2C[C@@H](C)C[C@H](OC)[C@H](O)[C@@H](C)/C=C(\C)[C@H](OC(N)=O)[C@@H](OC)/C=C\C=C(/C)C(=O)NC(=CC1=O)C2=O [TANESPIMYCIN],89.8,83,309,132,103,89.8,242,59.6,312,80.1,214,161,138,223,–,84.8,108,70,50.5,74.7,97.3,39.3,33.9,104,73.1,92.1,39.8,114,72.4,122
